{"source": "ChEMBL document CHEMBL3301361", "about": "“Experimental in vitro DMPK and physicochemical data on a set of publicly disclosed compounds”"}
{"experiment": "physchem", "details": "octan-1-ol/water, pH 7.4, LogD7.4"}
{"smiles": "Fc1cc(F)cc(-c2cc(N(CCCN3CCCCCC3)Cc3ccc4c(c3)OCO4)on2)c1", "logD": 3.84}
{"smiles": "N#Cc1ccc(-c2csc(Nc3ccc(O)cc3)n2)cc1", "logD": 4.1}
{"smiles": "CCN(C(=O)NCc1ccc(F)cc1)C1CCN(CCC(c2ccccc2)c2ccccc2)CC1", "logD": 3.9}
{"smiles": "COc1cccc(Nc2nc(NCC3CCCO3)c3ccccc3n2)c1", "note": "(configuration not stated)", "logD": 3.9}
{"smiles": "N[C@@H](Cc1ccc(F)cc1)C(=O)O", "logD": -1.06}
{"smiles": "N#CCc1c[nH]c2ccc(OCc3ccccc3)cc12", "logD": 3.71}
{"smiles": "O=C(CCCc1ccncc1)N1CCN(c2ccc(Cl)cc2Cl)CC1", "logD": 3.93}
{"smiles": "Cc1ccc(C(=O)N2CCC(C(=O)c3ccc(Cl)cc3)CC2)cc1", "logD": 3.79}
{"smiles": "O=C(CC12CC3CC(CC(C3)C1)C2)Nc1cccc2ncccc12", "logD": 3.83}
{"smiles": "Cn1c(CN2CCN(c3cccc(Cl)c3)CC2)nc2ccccc21", "logD": 3.75}
{"smiles": "Clc1ccc(-c2cn3ccccc3n2)cc1", "logD": 4}
{"smiles": "COc1ccc(/C=C2/CCc3ccccc3C2=O)cc1CN1CCOCC1", "logD": 3.8}
{"smiles": "CCCc1c(C(=O)Nc2cc(C)on2)cnn1-c1ccccc1", "logD": 3.7}
{"smiles": "COc1ccc(Cl)cc1C(=O)Nc1nc2ccccc2[nH]1", "logD": 4.05}
{"smiles": "CN1CCOc2nc(C#Cc3ccccc3)ccc21", "logD": 3.8}
{"smiles": "CCN1CCOc2cc(COc3ccccc3)cnc21", "logD": 3.7}
{"smiles": "CC[C@H](NC(=O)c1c([S+](C)[O-])c(-c2ccc(F)cc2)nc2ccccc12)c1ccccc1", "note": "(some centres not stated)", "logD": 3.72}
{"smiles": "CC[C@H](NC(=O)c1c([S+]([O-])C(C)C)c(-c2ccccc2)nc2ccccc12)c1ccccc1", "note": "(some centres not stated)", "logD": 3.81}
{"smiles": "CC1CC(CN)CC(CO)C1", "note": "(configuration not stated)", "logD": -1.4}
{"smiles": "Cc1[nH]c2nc(NCc3ccc(Cl)cc3)nn2c(=O)c1Cc1ccccc1", "logD": 3.7}
{"smiles": "Cc1ccc(CO)cc1N(C)c1ccnc(Nc2cc(OC3CCOCC3)cc(N3CCOCC3)c2)n1", "logD": 3.7}
{"smiles": "Cc1ccc(CO)cc1N(C)c1ccnc(Nc2cc(N3CCOCC3)nc(N3CCOCC3)n2)n1", "logD": 3.9}
{"smiles": "N#Cc1ccc(OCC(=O)O)c(-c2ccccc2)c1", "logD": -1.08}
{"smiles": "COc1cc(F)ccc1-c1cncc(CNC(=O)c2ccccc2)c1", "logD": 3.76}
{"smiles": "CCCNC(=O)c1nnc2c(-c3ccccc3)cccc2c1N", "logD": 3.8}
{"smiles": "COc1ccc(OC)c(-c2c(F)ccc3c(N)c(C(=O)NC(C)C)nnc23)c1", "logD": 3.77}
{"smiles": "CCN(C(=O)Cc1ccc(S(=O)(=O)N(C)C)cc1)C1CCN(CCC(c2ccccc2)c2ccccc2)CC1", "logD": 3.7}
{"smiles": "CCN(C(=O)NCc1ccccc1)C1CCN(CCC(c2ccccc2)c2ccccc2)CC1", "logD": 4}
{"smiles": "CN(C(=O)Cc1ccc(C#N)cc1)C1CCN(CCC(c2ccccc2)c2ccccc2)CC1", "logD": 3.7}
{"smiles": "COc1cc(N2CCN(C(C)=O)CC2)ccc1Nc1ncc(Br)c(-c2cnc3ccccn23)n1", "logD": 3.7}
{"smiles": "COc1cc(N2CCN(C(C)=O)CC2)ccc1Nc1ncc(Cl)c(-c2cnc3cc(F)ccn23)n1", "logD": 3.7}
{"smiles": "CCN(C(=O)Cc1ccc(C#N)cc1)C1CCN(CCC(c2ccccc2)c2ccccc2)CC1", "logD": 3.9}
{"smiles": "COC(=O)c1ccc(CC(=O)N(C)C2CCN(CCC(c3ccccc3)c3ccccc3)CC2)cc1", "logD": 4}
{"smiles": "O=C(O)CSc1c[nH]c2ccccc12", "logD": -1.31}
{"smiles": "N#Cc1cccc(C(=O)Nc2cc(-c3ccccc3)nn2-c2ccccc2)c1", "logD": 3.82}
{"smiles": "Oc1ccc(-c2ccc3cc(O)ccc3c2)cc1", "logD": 4}
{"smiles": "COc1ccc(-c2ccccc2)cc1N1CC(=O)NS1(=O)=O", "logD": -1.01}
{"smiles": "CN(C)CCCNC(=O)c1nc(Cl)c(N)nc1N", "logD": -1}
{"smiles": "Oc1ccc(C(c2ccc(O)cc2)C(Cl)(Cl)Cl)cc1", "logD": 3.86}
{"smiles": "O=c1cc(N2CCOCC2)oc2c(-c3cccc4c5c(sc34)CCCC5)cccc12", "logD": 4.1}
{"smiles": "O=C(Nc1ccc(C(F)(F)F)c(Cl)c1)N1CCN(C[C@@H]2CCCN(C3CC3)C2)CC1", "logD": 4.06}
{"smiles": "O=[N+]([O-])c1cccc2ccc(C(Cl)(Cl)Cl)nc12", "logD": 3.7}
{"smiles": "CC(C)Cn1c(=O)n(C)c(=O)c2c(SCCCO)c(Cc3ccccc3C(F)(F)F)sc21", "logD": 4.05}
{"smiles": "COc1ccc(-c2cccc3c(N)c4c(nc23)CN(C2CCC2)C4=O)c(C)n1", "logD": 3.92}
{"smiles": "C[C@@H]1CN(c2noc(C(F)(F)F)n2)CCN1c1ncc(OCc2ccncc2C#N)cn1", "logD": 3.95}
{"smiles": "Cn1ncnc1-c1c2c(=O)n(C)c(=O)n(CC3CC3)c2nn1Cc1ccnc2ccc(Cl)cc12", "logD": 3.8}
{"smiles": "C#CCn1c(=O)c2c(-c3cc(C#N)cn3C)n(Cc3ccnc4ccc(Cl)cc34)nc2n(CC2CC2)c1=O", "logD": 3.96}
{"smiles": "C=CCn1c(=O)c2c(-c3nc(C#N)cn3C)n(Cc3ccnc4ccc(Cl)cc34)nc2n(CC2CC2)c1=O", "logD": 3.92}
{"smiles": "CC(C)Cn1c(=O)n(C)c(=O)c2c(-c3cncn3C)n(Cc3cccc4ccccc34)nc21", "logD": 4.1}
{"smiles": "Cc1cn([C@H]2CCCN(Cc3ccc(C(=O)O)c(Oc4cccc(F)c4)c3)C2)c(=O)[nH]c1=O", "logD": -1.03}
{"smiles": "Oc1nc(S)nc2nc[nH]c12", "logD": -1.48}
{"smiles": "COc1cc2ncnc(N3CC[C@@H](Oc4cnc5ccccc5n4)C3)c2cc1OC", "logD": 4.04}
{"smiles": "O=C(NC[C@@H](O)CN1CCC(Oc2ccc(Cl)c(Cl)c2)CC1)c1c[nH]c(=O)c2ccc(F)cc12", "logD": 3.93}
{"smiles": "O=C(NCc1ccco1)c1ccc2[nH]c(COc3ccc(C45CC6CC(CC(C6)C4)C5)cc3)nc2c1", "logD": 4}
{"smiles": "COc1cc(C(=O)Nc2ccc(N3CCOCC3)cc2)nc2c(N3CCN(C)CC3)cc(F)cc12", "logD": 3.85}
{"smiles": "NC1(C(=O)NC(c2ccccc2)c2ccc(Cl)cc2)CCN(c2ncnc3[nH]ccc23)CC1", "note": "(configuration not stated)", "logD": 4.1}
{"smiles": "C[C@@H]1CN(c2nc(N3CCOC[C@@H]3C)c3ccc(-c4ccccc4)nc3n2)C[C@H](C)O1", "logD": 3.75}
{"smiles": "CCC[C@H](CO)Nc1nc(SCc2ccccc2)nc2nc(N)sc12", "logD": 3.8}
{"smiles": "CNc1nc2nc(SCc3cccc(F)c3F)nc(N[C@H](C)CO)c2s1", "logD": 3.7}
{"smiles": "O=C1c2ccccc2CN1C1CCN(CCC(c2ccccc2)c2ccccc2)CC1", "logD": 4.1}
{"smiles": "Clc1cccc(Cl)c1/C(=C/n1cncn1)OC1CCCCCC1", "logD": 4.1}
{"smiles": "Clc1cccc(Nc2ncnc3ccccc23)c1", "logD": 3.9}
{"smiles": "O=C1CCC(=O)N1C(CCc1ccncc1)COc1ccc(-c2cccc([N+](=O)[O-])c2)cc1", "note": "(configuration not stated)", "logD": 3.88}
{"smiles": "CNC(=O)c1cccc(NC(=O)Nc2cccc(C#N)c2)c1CN1CCC(Cc2ccc(F)cc2)CC1", "logD": 3.97}
{"smiles": "O=C(C(=O)c1cc(Br)ccc1O)c1cc(Br)ccc1O", "logD": 3.85}
{"smiles": "CC(C)Cn1c(=O)n(C)c(=O)c2c(C(=O)N3CCCC3)c(Cc3ccccc3C(F)(F)F)sc21", "logD": 3.8}
{"smiles": "Cn1c(N)nc(CCc2cccc(-c3ccccc3)c2)cc1=O", "logD": 3.8}
{"smiles": "Oc1ccc(-c2csc(-c3ccc(O)cc3)n2)cc1", "logD": 3.7}
{"smiles": "Oc1ccc2nc(-c3ccccc3)sc2c1", "logD": 3.99}
{"smiles": "Cc1ccc(NC(=O)c2cccc(C(F)(F)F)c2)cc1NC(=O)c1ccc2ncccc2c1", "logD": 3.87}
{"smiles": "O=c1[nH]ccc2nc(-c3ccc(CN4CCC(c5n[nH]c(-c6ccccn6)n5)CC4)cc3)c(-c3ccccc3)cc12", "logD": 3.9}
{"smiles": "CC[C@H](NC(=O)c1c(N)c(-c2cccc(F)c2)nc2ccccc12)c1ccccc1", "logD": 4.05}
{"smiles": "COc1cc(C(=O)Nc2ccc(Cl)c(-c3nc4ccccc4[nH]3)c2)cc(OC)c1OC", "logD": 3.83}
{"smiles": "Oc1ccc2[nH]c(CN3CCC(Cc4ccc(F)cc4)CC3)nc2c1", "logD": 3.8}
{"smiles": "Nc1ccc2[nH]c(Cc3ccc(Oc4ccccc4)cc3)nc2c1", "logD": 3.8}
{"smiles": "Cn1nc(C(C)(C)C)cc1NC(=O)Nc1ccc(Cl)cc1", "logD": 3.97}
{"smiles": "CC(C)(C)C(=O)NCc1ccc(NC(=O)N2CCCC(O)(c3ccc(Cl)c(Cl)c3)C2)cc1", "note": "(configuration not stated)", "logD": 3.93}
